How the values were obtained:
[1] = target: T1, α1d-adrenoceptor (recombinant) (Homo sapiens, UniProt P25100); test: Radioligand binding, cloned α1d-adrenoceptor ([3H]prazosin); conditions: read-out: Affinity for recombinant α1d-adrenoceptor, cloned receptors (Ki)
T1 sequence (P25100 1-572): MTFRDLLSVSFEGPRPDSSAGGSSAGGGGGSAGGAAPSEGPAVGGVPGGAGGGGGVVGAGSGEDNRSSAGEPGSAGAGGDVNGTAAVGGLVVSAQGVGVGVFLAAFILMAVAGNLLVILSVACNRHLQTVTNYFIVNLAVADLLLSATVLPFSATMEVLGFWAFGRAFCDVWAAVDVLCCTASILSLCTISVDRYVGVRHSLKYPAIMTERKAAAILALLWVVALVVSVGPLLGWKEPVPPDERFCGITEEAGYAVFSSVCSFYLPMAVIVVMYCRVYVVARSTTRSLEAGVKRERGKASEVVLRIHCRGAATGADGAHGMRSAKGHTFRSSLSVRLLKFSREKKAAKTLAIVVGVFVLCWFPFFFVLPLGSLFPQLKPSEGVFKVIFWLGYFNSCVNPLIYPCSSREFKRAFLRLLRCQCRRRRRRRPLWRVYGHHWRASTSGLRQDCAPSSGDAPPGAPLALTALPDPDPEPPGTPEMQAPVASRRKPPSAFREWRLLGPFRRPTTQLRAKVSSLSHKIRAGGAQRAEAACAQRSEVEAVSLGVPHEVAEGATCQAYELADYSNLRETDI
Experimental: (§1) Determination of affinity for cloned subtypes of α1-adrenoceptor subtypes was performed in membranes from cells transfected by electroporation with DNA expressing the genes encoding each α1-adrenoceptor subtype.
(§2) Non-specific binding was determined in the presence of 10 μM phentolamine.
(§3) Incubation was stopped by addition of ice-cold Tris buffer and rapid filtration through 0.2% polyethyleneimine-pretreated Schleicher & Schuell GF52 filters.
(§4) Data were expressed as mean Ki.

[2] = target: T2, α1a-adrenoceptor (recombinant) (Homo sapiens, UniProt P35348); test: Radioligand binding, cloned α1a-adrenoceptor ([3H]prazosin); conditions: read-out: Affinity for recombinant α1a-adrenoceptor, cloned receptors (Ki)
T2 construct: expressed in transfected cells
T2 sequence (P35348 1-466): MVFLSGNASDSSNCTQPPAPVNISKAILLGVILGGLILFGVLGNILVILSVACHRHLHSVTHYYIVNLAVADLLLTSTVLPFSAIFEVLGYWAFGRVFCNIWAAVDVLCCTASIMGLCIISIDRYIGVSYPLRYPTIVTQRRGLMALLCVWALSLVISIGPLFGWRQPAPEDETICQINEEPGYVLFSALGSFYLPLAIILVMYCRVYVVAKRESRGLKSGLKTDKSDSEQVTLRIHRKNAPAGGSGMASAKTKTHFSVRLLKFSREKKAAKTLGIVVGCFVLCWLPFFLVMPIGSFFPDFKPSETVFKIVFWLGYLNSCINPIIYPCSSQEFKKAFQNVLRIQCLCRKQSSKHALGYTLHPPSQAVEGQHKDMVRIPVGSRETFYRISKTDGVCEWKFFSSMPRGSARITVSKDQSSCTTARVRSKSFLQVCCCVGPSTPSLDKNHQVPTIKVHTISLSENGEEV
Experimental: as §1, §2, §3, §4

[3] = target: T3, 5HT1A-serotoninergic receptor (Homo sapiens, UniProt P08908); test: Radioligand binding, cloned 5-HT1A-serotoninergic receptor in HeLa membranes ([3H]8-OH-DPAT); parameters: expressed in transfected cells; host or cells: HeLa; conditions: cloned human 5-HT1A receptor in HeLa membranes, mean Ki, read-out: Affinity for 5-HT1A receptor, cloned receptors (Ki)
T3 sequence (P08908 1-422): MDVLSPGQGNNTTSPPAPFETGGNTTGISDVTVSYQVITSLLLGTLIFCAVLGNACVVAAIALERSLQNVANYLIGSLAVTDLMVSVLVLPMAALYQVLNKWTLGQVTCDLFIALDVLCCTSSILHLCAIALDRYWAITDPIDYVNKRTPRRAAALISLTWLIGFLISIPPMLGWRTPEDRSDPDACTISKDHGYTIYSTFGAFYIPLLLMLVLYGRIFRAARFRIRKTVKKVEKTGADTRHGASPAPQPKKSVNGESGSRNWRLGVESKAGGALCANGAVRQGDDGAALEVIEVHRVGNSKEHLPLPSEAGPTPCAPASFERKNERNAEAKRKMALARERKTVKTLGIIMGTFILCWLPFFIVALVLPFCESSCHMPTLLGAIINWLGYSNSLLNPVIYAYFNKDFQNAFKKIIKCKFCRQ
Experimental: HeLa cells were grown as monolayers in Dulbecco's Modified Eagle medium (DMEM) supplemented with 10% foetal calf serum and gentamicin (100 μg/mL), 5% CO2, at 37° C. The cells were detached from the growth flask at 95% confluence by a cell scraper and were lysed in ice-cold Tris-5-mM and EDTA-5-mM buffer (pH 7.4). The homogenates were centrifuged at 40000×g×20 minutes and the membranes were resuspended in a small volume of ice-cold buffer containing Tris 5 mM and EDTA 5 mM (pH 7.4), and immediately frozen and stored at −70° C. until use.
Non-specific binding was determined in the presence of 10 μM 5-HT. The incubation was stopped by addition of ice-cold Tris buffer and rapid filtration through 0.2% polyethyleneimine-pretreated Schleicher & Schuell filters.
as §4

[4] = target: T4, α1b-adrenoceptor (recombinant) (Homo sapiens, UniProt P35368); test: Radioligand binding, cloned α1b-adrenoceptor ([3H]prazosin); conditions: read-out: Affinity for recombinant α1b-adrenoceptor, cloned receptors (Ki)
T4 construct: expressed in transfected cells
T4 sequence (P35368 1-520): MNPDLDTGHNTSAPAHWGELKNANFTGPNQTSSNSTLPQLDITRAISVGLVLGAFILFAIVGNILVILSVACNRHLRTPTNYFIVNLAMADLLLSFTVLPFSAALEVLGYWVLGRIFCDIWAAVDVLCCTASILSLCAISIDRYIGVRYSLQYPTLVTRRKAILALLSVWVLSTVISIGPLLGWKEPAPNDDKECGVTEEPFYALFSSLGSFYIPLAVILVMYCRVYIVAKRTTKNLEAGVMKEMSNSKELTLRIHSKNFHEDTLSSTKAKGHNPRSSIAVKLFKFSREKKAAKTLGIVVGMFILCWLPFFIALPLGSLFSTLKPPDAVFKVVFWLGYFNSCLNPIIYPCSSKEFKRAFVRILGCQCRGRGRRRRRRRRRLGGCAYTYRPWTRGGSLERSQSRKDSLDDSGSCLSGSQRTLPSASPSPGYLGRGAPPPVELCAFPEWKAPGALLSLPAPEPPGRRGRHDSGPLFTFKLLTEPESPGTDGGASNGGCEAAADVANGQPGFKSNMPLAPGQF
Experimental: as §1, §2, §3, §4

α1L adrenoceptor = target: T5, α1L adrenoceptor (Oryctolagus cuniculus, UniProt O02824); test: Functional antagonism of noradrenaline-induced contractions of rabbit aorta pretreated with chloroethylclonidine; format: biochemical; conditions: NA-induced contractions of rabbit aorta pretreated with chloroethylclonidine
T5 sequence (O02824 1-466): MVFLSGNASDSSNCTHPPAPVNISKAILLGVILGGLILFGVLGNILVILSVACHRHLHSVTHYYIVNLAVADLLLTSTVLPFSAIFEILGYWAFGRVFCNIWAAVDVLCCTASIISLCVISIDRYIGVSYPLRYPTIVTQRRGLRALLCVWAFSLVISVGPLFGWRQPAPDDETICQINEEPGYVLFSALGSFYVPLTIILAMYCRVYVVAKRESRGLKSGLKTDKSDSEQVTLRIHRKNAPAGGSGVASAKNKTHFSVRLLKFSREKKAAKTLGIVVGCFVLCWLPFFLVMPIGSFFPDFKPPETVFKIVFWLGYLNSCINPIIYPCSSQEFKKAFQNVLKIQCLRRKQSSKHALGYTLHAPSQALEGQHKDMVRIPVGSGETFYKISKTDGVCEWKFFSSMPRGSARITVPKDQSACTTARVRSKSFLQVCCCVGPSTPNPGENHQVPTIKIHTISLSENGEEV
Experimental: Adult male New Zealand rabbits were sacrificed by cervical dislocation. The aorta was removed, placed in Krebs-Henseleit buffer and dissected free of adhering tissue. […] Desmethylimipramine (0.1 μm) and corticosterone (1 μM) to block neuronal and extraneuronal uptake of NA, (±)-propranol (1 μM) to block β adrenoceptors and yohimbine (0.1 μM) to block α2 adrenoceptors, were added to the buffer.
The preparations were allowed to equilibrate for 60 minutes and then primed every thirty minutes with 10 μM NA for three times. The aortic rings were then incubated with the alkylating agent chloroethylclonidine (5×10^−5 M) for 30 minutes and then washed extensively three times (in 0.5 hours) before constructing the NA-concentration/response curve. After washout of NA and re-equilibration of the tissue (45 minutes), the drug to be tested was added and, after 30 minutes, a second NA-cumulative-concentration/response curve constructed.
Each antagonist concentration was tested using 2-3 aortic rings from different rabbits.
Dose ratios (i.e., the ratio between the concentrations of NA required to produce half-maximal response in the presence and in the absence of the test antagonist) were calculated for each concentration of the compounds. The logarithm of these dose ratio-1 was plotted against the logarithm of the compound concentrations (Schild plot) to evaluate the affinity constant Kb.
When only one or two concentrations of the test compounds were utilised, the apparent Kb value was calculated using the formula: Kb=[B]/(DOSE RATIO-1), where B is the antagonist concentration.

| Ki [1] | Ki [2] | Ki [3] | Ki [4] | Functional affinity for the α1L adrenoceptor subtype, pKb (α1L adrenoceptor) | Structure (SMILES) |
| --- | --- | --- | --- | --- | --- |
| 2.72 nM | 0.38 nM | 24.4 nM | 0.78 nM | 8.45 | COc1ccc(Cl)cc1N1CCN(CCCNC(=O)c2cccc3c(=O)c(C)c(C#N)oc23)CC1 [Example 11, 8-{3-[4-(5-Chloro-2-methoxyphenyl)-1-piperazinyl]propylcarbamoyl}-2-cyano-3-methyl-4-oxo-4H-1-benzopyran] |
| 4.79 nM | 0.136 nM | 22.4 nM | 2.61 nM | 8.72 | Cc1c(-c2ccccc2)oc2c(C(=O)NCCCN3CCN(c4ccc(F)cc4OCC(F)(F)F)CC3)cccc2c1=O [Example 19, 8-<3-{4-[4-Fluoro-2-(2,2,2-trifluoroethoxy)phenyl]-1-piperazinyl}propylcarbamoyl>-3-methyl-4-oxo-2-phenyl-4H-1-benzopyran] |
| 3.02 nM | 0.144 nM | 39.5 nM | 9.91 nM | 9 | Cc1c(C(N)=O)oc2c(C(=O)NCCCN3CCN(c4cc(F)ccc4OCC(F)(F)F)CC3)cccc2c1=O [Example 8, 2-Carbamoyl-8-<3-{4-[5-fluoro-2-(2,2,2-trifluoroethoxy)phenyl]-1-piperazinyl}-propylcarbamoyl>-3-methyl-4-oxo-4H-1-benzopyran] |
| 3.83 nM | 0.23 nM | 68.4 nM | 3.56 nM | 8.55 | COc1ccc(Cl)cc1N1CCN(CCCNC(=O)c2cccc3c(=O)c(C)c(C(=O)N(C)C)oc23)CC1 [Example 6, 8-{3-[4-(5-Chloro-2-methoxyphenyl)-1-piperazinyl]propylcarbamoyl}-3-methyl-2-dimethylcarbamoyl-4-oxo-4H-1-benzopyran] |
| 13.1 nM | 1.6 nM |  | 9.42 nM | 8.03 | COc1ccc(C(F)(F)F)cc1N1CCN(CCCNC(=O)c2cccc3c(=O)c(C)c(-c4ccccc4)oc23)CC1 [Example 17, 8-{3-[4-(2-Methoxy-5-trifluoromethylphenyl)-1-piperazinyl]propylcarbamoyl}-3-methyl-4-oxo-2-phenyl-4H-1-benzopyran] |

| Structure (SMILES) | Ki [1] | Ki [2] | Ki [3] | Ki [4] | Functional affinity for the α1L adrenoceptor subtype, pKb (α1L adrenoceptor) |
| --- | --- | --- | --- | --- | --- |
| COc1ccc(Cl)cc1N1CCN(CCCNC(=O)c2cccc3c(=O)c(C)c(NC(=O)OC(C)(C)C)oc23)CC1.O [Example 3, 2-(1,1-Dimethylethoxycarbonylamino)-8-{3-[4-(5-chloro-2-methoxyphenyl)-1-piperazinyl]propylcarbamoyl}-3-methyl-4-oxo-4H-1-benzopyran monohydrate] | 0.45 nM | 0.2 nM | 81.9 nM | 0.32 nM | 8.43 |
